Data published in ChEMBL document CHEMBL3588748, “Original 2-(3-Alkoxy-1H-pyrazol-1-yl)azines Inhibitors of Human Dihydroorotate Dehydrogenase (DHODH)” (J Med Chem, 2015).
Calls of active or inactive are those of the source. How the calls were made is not given here.

Key:
Plasmodium falciparum = experiment: Antiplasmodial activity against Plasmodium falciparum 3D7 assessed as inhibition of parasite growth at 8.66 ug/ml by SYBR Green I dye based assay; assay type: functional, organism-based

Description for Measles morbillivirus: Antiviral activity against measles virus rMV2/Luc infected in HEK-293T cells assessed as inhibition of virus growth incubated for 24 hrs by firefly luciferase reporter gene assay

Compound | growth inhibition (GI) (Plasmodium falciparum) | pMIC50 (Measles morbillivirus)
CCOc1nn(-c2ccc(Cl)cn2)c(C)c1Cc1ccccc1 | inactive | 5.5
Cc1c(Oc2c(F)cccc2F)c(OC(C)C)nn1-c1ccc(Cl)nn1 | inactive | 6.8
CCn1cnc(-n2nc(OC(C)C)c(Oc3c(F)cccc3F)c2C)c1 | inactive | 
CCOc1nn(-c2ncccc2C)c(C)c1Cc1ccccc1 | inactive | <5
Cc1c(Oc2ccc(F)cc2F)c(OC(C)C)nn1-c1ccc(C2CC2)cn1 | inactive | 6.5
CCOc1nn(-c2ncc(C3CC3)cc2C#N)c(C)c1Cc1ccccc1 | inactive | 6.6
Cc1c(Oc2cccc(F)c2F)c(OC(C)C)nn1-c1ccc(C2CC2)nn1 | inactive | 7.4
CCOc1nn(-c2ccc(C3CC3)nn2)c(C)c1Oc1ccccc1Cl | inactive | 7.1
CCOc1nn(-c2cccc(C(F)(F)F)n2)c(C)c1Cc1ccccc1 | inactive | <5
CCOc1nn(-c2ccc(C3CC3)nn2)c(C)c1Oc1cc(Cl)ccc1Cl | inactive | 6.9
CCOc1ccc(-n2nc(OC(C)C)c(Oc3c(F)cccc3F)c2C)nn1 | inactive | 
Cc1c(-c2ccc(-c3ccccc3F)cc2)nc2ccc(F)cc2c1C(=O)O | inactive | 
COc1ccc(-n2nc(OC(C)C)c(Oc3c(F)cccc3F)c2C)nc1 | inactive | 7.3
CCOc1nn(-c2ccc(C3CC3)cn2)c(C)c1Oc1cc(Cl)cc(Cl)c1 | inactive | 6.9
CCOc1nn(-c2ccc(C3CC3)nn2)c(C)c1Oc1cc(Cl)cc(Cl)c1 | inactive | 6.2
Cc1c(Oc2c(F)cccc2F)c(OC(C)C)nn1-c1ncc(C2CC2)cc1OCc1ccccc1 | inactive | 7
Cc1c(Oc2c(F)cccc2F)c(OC(C)C)nn1-c1ccccn1 | inactive | <5
CCOc1nn(-c2ncc(Br)cc2F)c(C)c1Cc1ccccc1 | inactive | 5.9
Cc1c(Oc2ccc(F)cc2)c(OC(C)C)nn1-c1ccc(C2CC2)cn1 [IPP/CNRS-A019] | inactive | 5.9
CCOc1nn(-c2ccc(C3CC3)cn2)c(C)c1Oc1ccccc1 | inactive | 7

Compound | growth inhibition (GI) (Plasmodium falciparum) | pMIC50 (Measles morbillivirus)
CCc1nnc(-n2nc(OC(C)C)c(Oc3c(F)cccc3F)c2C)nc1O | inactive | 7.6
Cc1c(Oc2c(F)cccc2F)c(OC(C)C)nn1-c1ncc(C2CC2)cc1C#N | inactive | 8.1
CCOc1nn(-c2ccc(C3CC3)nn2)c(C)c1Oc1ccccc1C(F)(F)F | inactive | 6.8
Cc1c(Oc2c(F)cccc2F)c(OC(C)C)nn1-c1cnc(Br)cn1 | inactive | 5.5
CCc1ccc(-n2nc(OC(C)C)c(Oc3c(F)cccc3F)c2C)nc1 | inactive | 7.1
Cc1c(Oc2c(F)cccc2F)c(OC(C)C)nn1-c1cnc(C(C)(C)C)nc1 | inactive | 
Cc1c(Oc2c(F)cccc2F)c(OC(C)C)nn1-c1cnc(C(F)(F)F)cn1 | inactive | 5.3
Cc1c(Oc2cccc(F)c2)c(OC(C)C)nn1-c1ccc(C2CC2)nn1 | inactive | 6.4
CCOc1nn(-c2ccc(C3CC3)nn2)c(C)c1Oc1ccccc1Br | inactive | 7.2
CCOc1nn(-c2ccc(OC)cn2)c(C)c1Cc1ccccc1 | inactive | 5.5
CC(=O)c1ccc(-n2nc(OC(C)C)c(Oc3c(F)cccc3F)c2C)nc1 | inactive | 6.6
Cc1c(Oc2ccc(F)cc2)c(OC(C)C)nn1-c1ccc(C2CC2)nn1 | inactive | 5.6
CCOc1nn(-c2ncc(C3CC3)cc2F)c(C)c1Cc1ccccc1 | inactive | 7
CCOc1nn(-c2cccc(F)n2)c(C)c1Cc1ccccc1 | inactive | <5
CCOc1nn(-c2ccc(C3CC3)nn2)c(C)c1Oc1ccc(C(F)(F)F)cc1 | inactive | 5.2
CCOc1nn(-c2ncccc2F)c(C)c1Cc1ccccc1 | inactive | 5.2
CCOc1nn(-c2ccc(C(C)C)cn2)c(C)c1Cc1ccccc1 | inactive | 5.9
CCOc1nn(-c2ccc(C3CC3)cn2)c(C)c1Oc1cccc(Cl)c1Cl | inactive | 7.9
Cc1ccc(-n2nc(OC(C)C)c(Oc3c(F)cccc3F)c2C)cn1 | inactive | 
